Assay results taken from patent publication US20250314641A1, “OBLIQUE LINE SCANNER SYSTEMS AND METHODS FOR HIGH THROUGHPUT SINGLE MOLECULE TRACKING IN LIVING CELLS” (EIKON THERAPEUTICS, INC., priority 2022, published 2025).

Test system: Halo-PCNA labeled U2OS cells
Test: Cell cycle phase assignment by machine learning model in Halo-PCNA U2OS cells
Assay type: cell-based
Conditions: 2 mM Thymidine (S-phase block) or 10 mM RO-3306 (G2-M block)
Procedure: FIGS. 20A-20F illustrate that OLS can be applied to capture the inter and intracellular heterogeneity of single protein dynamics. FIG. 20A depicts the analysis of sources of variance in SMT for KEAP1 measured under either OLS or HILO illumination. The contribution of cell to cell variation is 17-32 fold greater than that of FOV level or well to well variances, respectively. FIG. 20B depicts representative images of Halo-PCNA labeled cells treated with 2 mM Thymidine or 10 mM RO-3306 (top). Cell cycle prediction from a machine learning (ML) model used to color cell by cycle phase (bottom). FIG. 20C depicts the quantification of the fraction of cells in each cell phase in response to cycle block treatments in FIG. 20B. The following number of cells were analyzed for each condition: 34,067 for DMSO, 3,831 for RO-3306 and 6,044 for thymidine. […]
Time-lapse microscopy was conducted on Halo-PCNA labeled with 50 nM JFX650, to achieve near-saturating labeling, for 12 hours at 12 frames per hour (FIG. 21A). […] When cells in each cell phase were analyzed separately, it became apparent that the slow-moving population of PCNA was exclusively found in cell predicted to be in S-phase and that there was a marked decrease in the fast-moving population (FIG. 20E). […]
Cell cycle as provided above can be automatically determined using an image (e.g., an image of JF549-labeled PCNA). […]

Compound | fraction of cells assigned to cell cycle phases
O=C1NC(=NCc2cccs2)S/C1=C\c1ccc2ncccc2c1 [RO-3306] | expected enrichment in the fraction of cells assigned to the respective cell phases
Cc1cn([C@H]2C[C@H](O)[C@@H](CO)O2)c(=O)[nH]c1=O [thymidine] | expected enrichment in the fraction of cells assigned to the respective cell phases
